Experimental data taken from article PMC6222669, “The Inhibitory Effect of Flavonoid Aglycones on the Metabolic Activity of CYP3A4 Enzyme” (Molecules : A Journal of Synthetic Chemistry and Natural …, 2018).
Where two headings read alike, the source gives them in different places. One block for each compound: values may come before it.

Tests used:
CYP3A4 [1] = molecular target: T1, CYP3A4 (Homo sapiens, UniProt P08684); experiment: Time dependent inhibition of CYP3A4 (preincubation without NADPH); conditions: 1 µM flavonoid; for Residual CYP3A4 activity: time dependent inhibition assay, preincubation without NADPH; for time dependent inhibition observed or not: confirmed in direct inhibition assay
T1 sequence (P08684 2-503 limits assumed): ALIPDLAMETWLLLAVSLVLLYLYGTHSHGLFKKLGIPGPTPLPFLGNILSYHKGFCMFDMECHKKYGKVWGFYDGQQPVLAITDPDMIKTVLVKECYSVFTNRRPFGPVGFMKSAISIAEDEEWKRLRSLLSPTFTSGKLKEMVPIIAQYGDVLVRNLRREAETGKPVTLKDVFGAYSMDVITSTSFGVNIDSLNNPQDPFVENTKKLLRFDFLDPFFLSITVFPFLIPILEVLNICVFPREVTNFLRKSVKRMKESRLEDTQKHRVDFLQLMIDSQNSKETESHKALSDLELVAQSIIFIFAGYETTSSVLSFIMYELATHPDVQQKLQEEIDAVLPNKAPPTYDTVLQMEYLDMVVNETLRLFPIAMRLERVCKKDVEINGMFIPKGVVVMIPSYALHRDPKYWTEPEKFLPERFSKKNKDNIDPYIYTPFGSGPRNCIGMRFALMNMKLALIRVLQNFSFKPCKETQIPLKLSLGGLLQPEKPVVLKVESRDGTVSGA
Experimental: (§1) Incubation mixture contained 5 pmol of the CYP3A4 enzyme.
(§2) If metabolism-dependent inhibition was determined, time dependent inhibition was assessed by preincubating flavonoids and enzymes, after which residual activity was determined by adding NADPH generating system along with substrate. In this instance, the direct inhibition was also tested without preincubation, i.e., NADPH generating system, was added to incubation mixture containing flavonoid and substrate.
(§3) All incubations were conducted in triplicate.

CYP3A4 [2] = molecular target: T1, CYP3A4; experiment: Direct inhibition of CYP3A4 (no preincubation)
Experimental: as §1, §2, §3

CYP3A4 [3] = molecular target: T1, CYP3A4; experiment: Metabolism dependent inhibition of CYP3A4 (testosterone 6β-hydroxylation, preincubation with NADPH generating system); conditions: for type of inhibition: concluded from metabolism dependent, time dependent and direct inhibition assays; for activity at 15 min, 1 µM / inhibition at 15 min, 1 µM: human, pH 7.4, probe testosterone (200 µM; 6β-hydroxylation)
CYP3A4 [4] = system: CYP3A4; design: method as in ref 60 (Ding et al.); conditions: HepG2 cell line; ref 60 (Ding et al.); cited from earlier work
porcine cytochrome p450 = conditions: cited from earlier work; for Ki: competitive, ref 61 (Ekstrand et al.), read-out: inhibition constant
CYP3A4 [5] = conditions: cited from earlier work
CYP3A4 [6] = molecular target: T1, CYP3A4; experiment: in vitro; conditions: pH 7.4
CYP3A4 induction = system: CYP3A4 induction; design: method as in ref 64 (Li et al.); conditions: through PXR, CAR and AhR; ref 64 (Li et al.); cited from earlier work
CYP3A4 [7] = system: CYP3A4; design: method as in ref 65 (von Moltke et al.); conditions: ref 65 (von Moltke et al.); read-out: concentration giving 50% inhibition; cited from earlier work
CYP3A4 [8] = molecular target: T1, CYP3A4
CYP3A4 [9] = molecular target: T1, CYP3A4; design: purchased Thermo Fisher Scientific (Waltham, MA, USA); host or cells: recombinant baculovirus system (baculosomes); method as in ref 54 (Obermeier et al.); conditions: nifedipine oxidation, human liver microsomes, uncompetitive; ref 54 (Obermeier et al.); read-out: inhibition constant; cited from earlier work
CYP3A4 [10] = molecular target: T1, CYP3A4; design: purchased Thermo Fisher Scientific (Waltham, MA, USA); host or cells: recombinant baculovirus system (baculosomes); method as in ref 55 (Takanaga et al.); conditions: testosterone marker substrate; human liver microsomes and recombinant CYP3A4; ref 55 (Takanaga et al.); cited from earlier work
CYP3A4 [11] = conditions: cited from earlier work; remark: listed apart in the source

SMILES: COc1cc(-c2oc3cc(O)cc(O)c3c(=O)c2O)ccc1O [Isohramnetin, Isorhamnetin]
time dependent inhibition observed or not (CYP3A4 [1]): No time dependent inhibition
change in activity of CYP3A4 (CYP3A4 [4]): did not observe change in activity
Ki (porcine cytochrome p450; female pigs): 94 µM
Ki (porcine cytochrome p450; male pigs): 71 µM
competitive inhibition at low concentration (porcine cytochrome p450; under 16 µM concentration): no competitive inhibition was observed
type of inhibition (CYP3A4 [3]): pure irreversible inhibition
activity at 15 min, 1 µM (CYP3A4 [3]): 73 ± 6%

SMILES: O=C1C[C@@H](c2ccccc2)Oc2cc(O)cc(O)c21 [Pinocembrin]
time dependent inhibition observed or not (CYP3A4 [1]): No time dependent inhibition
type of inhibition (CYP3A4 [3]): pure irreversible inhibition
activity at 15 min, 1 µM (CYP3A4 [3]): 50 ± 15%
inhibition at 15 min, 1 µM (CYP3A4 [3]): 50%

SMILES: O=c1c(O)c(-c2ccc(O)cc2O)oc2cc(O)cc(O)c12 [Morin]
activity at 15 min, 1 µM (CYP3A4 [3]): 122 ± 8%

SMILES: COc1ccc([C@@H]2CC(=O)c3c(O)cc(O)cc3O2)cc1O [Hesperetin]
activity at 15 min, 1 µM (CYP3A4 [6]): 49 ± 19%

SMILES: O=c1c(-c2ccc(O)cc2)coc2cc(O)cc(O)c12 [Genistein]
activity at 15 min, 1 µM (CYP3A4 [3]): 72 ± 24%

SMILES: O=c1c(O)c(-c2cc(O)c(O)c(O)c2)oc2cc(O)cc(O)c12 [Myricetin]
activity at 15 min, 1 µM (CYP3A4 [3]): 133 ± 35%

SMILES: O=c1c(O)c(-c2ccc(O)c(O)c2)oc2cc(O)cc(O)c12 [Quercetin]
activity at 15 min, 1 µM (CYP3A4 [3]): 126 ± 10%

SMILES: O=C1C[C@@H](c2ccc(O)cc2)Oc2cc(O)cc(O)c21 [Naringenin]
activity at 15 min, 1 µM (CYP3A4 [3]): 65 ± 24%

SMILES: COc1cc(O)c2c(c1)O[C@H](c1ccc(O)cc1)CC2=O [Sakuranetin]
activity at 15 min, 1 µM (CYP3A4 [6]): 94 ± 45%

SMILES: O=c1cc(-c2ccccc2)oc2cc(O)ccc12 [7-hydroxyflavone]
activity at 15 min, 1 µM (CYP3A4 [3]): 78 ± 14%

SMILES: O=c1c(O)c(-c2ccccc2)oc2cc(O)cc(O)c12 [Galangin]
activity at 15 min, 1 µM (CYP3A4 [3]): 48 ± 24%

SMILES: O=c1c(O)c(-c2ccccc2)oc2cc(O)ccc12 [3,7-dihydroxyflav., 3,7-dihydroxyflavon]
activity at 15 min, 1 µM (CYP3A4 [3]): 91 ± 27%

SMILES: COc1cc(O)c2c(c1)OC(c1ccccc1)CC2=O (stereo not drawn) [Pinocembrin-7-methylether]
activity at 15 min, 1 µM (CYP3A4 [3]): 83 ± 2%

SMILES: COc1cc(O)c2c(=O)c(-c3ccc(O)cc3)coc2c1 [Prunetin]
activity at 15 min, 1 µM (CYP3A4 [3]): 74 ± 14%

SMILES: O=c1c(O)c(-c2ccccc2)oc2ccc(O)cc12 [3,6-dihydroxyflav., 3,6-dihydroxyflavon]
activity at 15 min, 1 µM (CYP3A4 [3]): 100 ± 14%

More lines, main results first:

Residual CYP3A4 activity (CYP3A4 [1]): 57 ± 10%
residual enzyme activity (CYP3A4 [2]; 1 µM flavonoid, direct inhibition assay, no preincubation): 46 ± 6%
activity at 15 min, 1 µM (CYP3A4 [3]): 5 ± 4%
inhibition at 15 min, 1 µM (CYP3A4 [3]): 95%
SMILES: COc1ccc(-c2cc(=O)c3c(O)cc(O)cc3o2)cc1 [Acacetin]
type of inhibition (CYP3A4 [3]): combined irreversible and reversible inhibition

time dependent inhibition observed or not (CYP3A4 [1]): No time dependent inhibition
type of inhibition (CYP3A4 [3]): pure irreversible inhibition
activity at 15 min, 1 µM (CYP3A4 [3]): 61 ± 21%
SMILES: COc1cc(OC)c2c(=O)cc(-c3ccccc3)oc2c1 [Chrysin-dimethylether]

activity at 15 min, 1 µM (CYP3A4 [3]): 81 ± 16%
SMILES: O=c1cc(-c2ccccc2)oc2ccccc12 [Flavone]
effect on 1′-hydroxilation of midazolam (CYP3A4 [5]): stimulate, rather than inhibit

activity at 15 min, 1 µM (CYP3A4 [3]): 101 ± 14%
SMILES: O=c1c(O)c(-c2ccc(O)cc2)oc2cc(O)cc(O)c12 [Kaempferol]

activity at 15 min, 1 µM (CYP3A4 [3]): 195 ± 29%
SMILES: COc1ccc(-c2oc3cc(O)cc(O)c3c(=O)c2O)cc1O [Tamarixetin]
influence on CYP3A4 induction (CYP3A4 induction): no influence
IC50 (CYP3A4 [7]): < 10 µM

activity at 15 min, 1 µM (CYP3A4 [3]): 117 ± 84%
SMILES: COc1cc(O)c2c(=O)c(O)c(-c3ccc(O)c(O)c3)oc2c1 [Rhamnetin]

Residual CYP3A4 activity (CYP3A4 [1]): 45 ± 3%
residual enzyme activity (CYP3A4 [2]; human, 30 min, 1 µM, pH 7.4): 54 ± 23%
activity at 15 min, 1 µM (CYP3A4 [6]): 17 ± 3%
SMILES: O=c1cc(-c2ccccc2)oc2cc(O)cc(O)c12 [Chrysin]
type of inhibition (CYP3A4 [8]): combined irreversible and reversible inhibition
effect on 1′-hydroxilation of midazolam (CYP3A4 [5]): inhibition of CYP3A4 activity was not observed

time dependent inhibition observed or not (CYP3A4 [1]): No time dependent inhibition
type of inhibition (CYP3A4 [8]): pure irreversible inhibition
activity at 15 min, 1 µM (CYP3A4 [6]): 42 ± 3%
SMILES: COc1ccc(-c2cc(=O)c3c(OC)c(OC)c(OC)c(OC)c3o2)cc1 [Tangeretin]
effect on 1′-hydroxilation of midazolam (CYP3A4 [5]): stimulate, rather than inhibit
Ki (CYP3A4 [9]): 72 µM
influence on CYP3A4 activity (CYP3A4 [10]): no influence

activity at 15 min, 1 µM (CYP3A4 [3]): 112 ± 31%
SMILES: O=c1cc(-c2ccc(O)c(O)c2)oc2cc(O)cc(O)c12 [Luteolin]

Residual CYP3A4 activity (CYP3A4 [1]): 34 ± 10%
residual enzyme activity (CYP3A4 [2]; human, 30 min, 1 µM, pH 7.4): 35 ± 18%
type of inhibition (CYP3A4 [8]): reversible inhibition
activity at 15 min, 1 µM (CYP3A4 [6]): 24 ± 3%
inhibition at 15 min, 1 µM (CYP3A4 [6]): 76%
SMILES: O=c1cc(-c2ccc(O)cc2)oc2cc(O)cc(O)c12 [Apigenin]

activity at 15 min, 1 µM (CYP3A4 [3]): 83 ± 14%
SMILES: O=c1cc(-c2ccccc2)oc2ccc(O)cc12 [6-hydroxyflavone]

activity at 15 min, 1 µM (CYP3A4 [3]): 102 ± 15%
SMILES: COc1cc(O)c2c(=O)cc(-c3ccccc3)oc2c1 [Techtocrysin]
